Laboratory results published in US20120064180A1, “USE OF NO AND NO DONORS FOR TERMINATING DORMANCY IN INVERTEBRATES” (UNIVERSITEIT GENT, priority 2009, published 2012).
Where a name gives a salt, the structure may show the parent alone.

Experiments:
Assay type in all cases: in vivo
[1] = tested on: Bolshoye Yarovoye Artemia cysts (ARC BY 1706); assay: Post-diapause development of Bolshoye Yarovoye strain encysted Artemia embryos with NO donors; details: for hatching after 24 hours: 40 and 60 μM, overcome by 48 hr; for concentration at which NO donor was most effective on cyst development: Bolshoye Yarovoye cysts, FIG. 2A-F
Procedure: (§1) Encysted embryos (cysts) from a parthenogenetic strain of Artemia obtained in winter 2005-2006 in Bolshoye Yarovoye (Altay Region: 52° 51′64″ N-78° 37′32″ E), Russia (Artemia Reference Center (ARC) code number BY 1706), were stored in the dark at 4° C. in dry sealed bags. For the experiment, the cysts were grown at 26-28° C. with constant illumination in 25 ml of sea water under varying experimental conditions as detailed below.
To quantify larval (nauplii) emergence and hatching (FIG. 1) which served as measures of cyst development, 6 samples of 250 μl from each 50 ml tube were mixed individually with 250 μl of sea water and 2 drops of Lugol's solution (Van Stappen, G, 1996) prior to counting nauplii (N) and umbrella (U) with the aid of a dissecting microscope. […] The extent of development was determined as the percent of developed cysts which was calculated as either the number of hatched larvae, or the number of hatched and emerged larvae, obtained from 100 cysts, the latter represented by the sum of hatched nauplii (larvae), emerged larvae and undeveloped cysts containing embryos.
(§2) The hatching percentage (H %) was calculated according to: […]
(§3) The hatching percentage plus (H^+%) was calculated according to: […]
The percent of developed cysts was calculated as described above.

[2] = tested on: resting eggs of Brachionus; assay: Brachionus resting egg hatching
Procedure: Resting eggs of Brachionus were suspended in 20 ml seawater (25 g/l), supplemented with different concentrations of Sin-1 Chloride (1-60 μM) and put in a falcon tube. These tubes were put on a rotor at 28° C. under constant illumination. The effect on the hatching rate was measured after 48 hr and 72 hr of incubation, by counting emerged rotifers in function of the amount of NO donor added.

[3] = tested on: eggs with diapaused embryos of Bombyx mori; assay: Termination of embryonic diapause in eggs by NO gas; details: 5 days after treatment
Procedure: All experiments were carried out on silkmoth strain Bombyx mori J106 (Lepidoptera: Bombycidae). Larvae were maintained on an artificial diet (Yakuruto co.) under standard conditions of 25° C., 65% relative humidity and 16 h light (Tazima, Y., 1978; Swevers et al., 2003). Egg batches were collected from a continuous insect colony and used for the experiments.
In a first series, a batch of 70 eggs with diapaused embryos of B. mori were submerged for 5 minutes in 20% HCl (in distilled water) at 48° C., and then the eggs were washed with distilled water and dried to the air. […] The latter treatment is the normally used procedure to break diapause in eggs with diapaused embryos for maintenance of the insect colony of B. mori (Tazima, Y., 1978; Swevers et al., 2003). In a water-control, a batch of 70 eggs with diapaused embryos was submerged in distilled water for 5 minutes at 45° C., and in a blank-control, the same procedure was followed, but without addition of water.
In parallel, 4 batches of 70 eggs each, were put in Pyrex glass bottles of 100 mL, which were sealed gastight by means of a rubber stop and a screw cap. Then the air was removed from these bottles by inserting a needle (in the rubber stop) connected to a vacuum pump. Using 50 ppmv (Parts Per Million by Volume) NO gas (with N2 as carrier gas, purchased from Air Liquide) dilution series were prepared (with air as dilutor) to obtain final NO concentrations of 20, 200, 2000 and 20000 ppbv, in these bottles. Verification of the NO concentrations was done by sampling from a parallel bottle that received the same gas mixture as the treatment bottle and NO content was determined by using a chemiluminescence detector (CLD 77 Amsp, Eco Physics). 30 minutes after insertion of the gas mixtures, the rubber stops were removed. These treatments were all performed at room temperature.
Development of the neonate larvae (=hatching of first instar larvae from eggs) was scored at daily intervals. The numbers of eggs with diapaused embryos per treatment (n) are given with the results.

[4] = tested on: diapaused adults of Leptinotarsa decemlineata; assay: Termination of adult diapause by NO gas
Procedure: All experiments were carried out on the Colorado potato beetle (potato beetle), Leptinotarsa decemlineata (Say) (Coleoptera: Chrysomelidae). Diapaused adult beetles were obtained by rearing larvae and pupae at 8 h light, 16 h dark, 25±2° C. and 70% relative humidity (Yi, et al., 2000). All life stages were fed potato (Solanum tuberosum L. ‘Bintje’) plants, that were refreshed daily. 15 days after adult emergence, the diapausing adults were placed in individual aluminum foil, 2.5-cm diameter ‘beakers’, containing fresh soil (Universal potting soil, Type 1, M. Snebbout n.v., Kaprijke, Belgium), and were stored at 4° C. in darkness.
Under red light, beetles were collected and put in Pyrex glass bottles of 100 mL, containing a layer of fresh soil. These bottles were wrapped in a double layer of aluminum foil to ensure complete darkness and sealed gastight by means of a rubber stop and a screw cap. The air was then removed by inserting a needle (in the rubber stop) connected to a vacuum pump. Using 50 ppmv NO gas (with N2 as carrier gas, purchased from Air Liquide), dilution series were prepared (with air as dilutor), and the desired final NO concentrations were injected in each bottle. A blank control, received ambient air only. Verification of the NO concentrations was done by sampling from a parallel bottle that received the same gas mixture as the treatment bottle. NO content was determined with a chemiluminescence detector (CLD 77 Amsp, Eco Physics). The treatments were all done at 4° C. in the dark and 30 minutes after insertion of the gas mixtures, the rubber stops were removed.
After the treatments, the beetles were collected in plastic containers (dimensions: 10×21×5 cm), containing fresh soil and potato leaves and kept at 25±3° C., 65% relative humidity and 8 h light (Exp. 1 and 2). In the last experiment (Exp 3), beetles were left at 4° C. in the dark for 6 hours before transfer to a 12° C. incubator, in the dark. The beetles that emerged were collected every day and the beetles' emergence per treatment (% of total) are given with the results.

[5] = tested on: eggs with diapaused embryos of Bombyx mori; assay: Termination of embryonic diapause in eggs dipped in NO donor or HCl; details: SpermineNONOate 1 mM 30 min dip; 20% HCl 5 min 48° C.
Procedure: All experiments were carried out on silkmoth strain Bombyx mori J106 (Lepidoptera: Bombycidae). Larvae were maintained on an artificial diet (Yakuruto Co.) under standard conditions of 25° C., 65% relevant humidity and 16 h light ([…] et al., 2003). Egg batches were collected from a continuous insect colony and used for the experiments. […] The latter treatment is the normally used procedure to break diapause in eggs with diapaused embryos for maintenance of the insect colony of B. mori ([…] et al., 2003). In a water-control, eggs with diapaused embryos were dipped in distilled water only, and in a blank-control, eggs with diapaused were not treated. […] The numbers of eggs with diapaused embryos per treatment (n) are given with the results.

[6] = tested on: Vinh Chau Artemia cysts (ARC VC 1742); assay: Post-diapause development of Vinh Chau strain encysted Artemia embryos with NO donor
Procedure: Dry and processed embryos (cysts) from a strain of Artemia obtained in 2009 in the Soc Trang Province in the Mekong Delta (09° 19′48″ N-105° 58′11″ E) (Artemia Reference Center (ARC) code number VC 1742), were stored in the dark at 4° C. in tin cans, that were not resealed after the first opening. For the experiment, the cysts were grown at 26-28° C. with constant illumination in 25 ml of sea water under varying experimental conditions as detailed below.
(§4) To quantify nauplii (larvae) emergence and hatching (FIG. 1) which served as measures of cyst development, 6 samples of 250 μl were taken from each 50 ml tube after 10, 12, 14, 16, 18, 20, 22 and 24 h post incubation. Subsequently the obtained samples were mixed individually with 250 μl of sea water and 2 drops of Lugol's solution (Van Stappen, G, 1996) prior to counting nauplii (N) and umbrella (U) with the aid of a stereomicroscope.
as §2, §3

[7] = tested on: Maloye Yarovoye Artemia cysts (ARC MY 1732); assay: Post-diapause development of Maloye Yarovoye strain encysted Artemia embryos with NO donor
Procedure: as §1, with “2008” for “winter 2005-2006”, “Maloye” for “Bolshoye”, “53° 04′00″ N-79° 10′00″” for “52° 51′64″ N-78° 37′32″”, “MY 1732),” for “BY 1706),”
as §4, with “24” for “10, 12, 14, 16, 18, 20, 22”, “48 h.” for “24 h post incubation.”
as §2, §3

[NH-]c1c[n+](N2CCOCC2)no1 [Sin-1 Chloride, 3-morpholine syndnonimine]
hatching after 24 hours [1]: less dramatic, but obvious | concentration at which NO donor was most effective on cyst development [1]: 4.0 µM | Percentage hatching of resting eggs ([2]; 1 μM, 48 hrs): 12.34% (3.62) | Percentage hatching of resting eggs ([2]; 1 μM, 72 hrs): 33.11% (2.66) | Percentage hatching of resting eggs ([2]; 6 μM, 48 hrs): 18.93% (1.25) | Percentage hatching of resting eggs ([2]; 6 μM, 72 hrs): 33.71% (0.66) | Percentage hatching of resting eggs ([2]; 10 μM, 72 hrs): 37.17% (2.88) | Percentage hatching of resting eggs ([2]; 20 μM, 48 hrs): 17.99% (3.18) | Percentage hatching of resting eggs ([2]; 20 μM, 72 hrs): 32.38% (2.63) | Percentage hatching of resting eggs ([2]; 60 μM, 48 hrs): 14.98% (3.52) | Percentage hatching of resting eggs ([2]; 60 μM, 72 hrs): 27.57% (1.00)

nitric oxide [NO gas]
eggs emerged ([3]; 0.02-20 ppmv NO, controls 0%): 27.1-37.1% | Percentage of developing eggs ([3]; 0.02 ppmv NO): 37.1% | Percentage of developing eggs ([3]; 0.20 ppmv NO): 35.7% | Percentage of developing eggs ([3]; 2.00 ppmv NO): 31.4% | Percentage of developing eggs ([3]; 20.0 ppmv NO): 27.1% | percentage of emerging adult beetles ([4]; 0.300 ppmv, after 4 days, in diapause for 27 days, blank control 14.3%): 42.9% | percentage of emerging adult beetles ([4]; 2.6 ppmv, 3 days after treatment, in diapause for 10 days): 20% | percentage of emerging adult beetles ([4]; 2.6 ppmv, day 6, in diapause for 10 days): 40% | percentage of emerging adult beetles ([4]; 6.1 ppmv, 3 days after treatment, in diapause for 10 days): 20% | percentage of emerging adult beetles ([4]; 6.1 ppmv, day 6, in diapause for 10 days): 20% | percentage of emerging adult beetles ([4]; 67.4 ppmv, after 4 days, in diapause for 10 days): 20%

Cl [20% HCl]
Number of developed neonates at day 6 [5]: 10 | Number of developed neonates at day 7 [5]: 36 | Number of developed neonates at day 8 [5]: 12 | Number of developed neonates at day 14 [5]: 0 | Number of undeveloped eggs at day 14 [5]: 14 | eggs developed into neonate larvae at 6-8 days after treatment (total) [5]: 81% | percentage of developed neonates at day 14 [5]: (0%)

CC1(C)N([O])C(c2ccccc2)=[N+]([O-])C1(C)C [PTIO, 2-phenyl-4,4,5,5,-tetramethylimidazoline-1-oxyl 3-oxide]
effect of NO scavenger on cyst development promoted by NO donors ([1]; 300 μM PTIO with 0.5 μM Papa NONOate, 6.0 μM Spermine NONOate or 6.0 μM Sin-1 chloride, 48 hr): inhibited cyst development

CCCN(CCCN)N(O)N=O [Papa NONOate, 3-(2-hydroxy-2-nitroso-1-propylhydrazino)-1-propanamine]
hatching percentage (H %) versus untreated control ([6]; 0.5 μM, 16 and 18 h post-treatment): significantly increased | hatching percentage (H %) versus non-treated controls ([6]; 1 and 4 μM, 16 hours and more): comparable to the non-treated controls | optimal dose ([6]; Vinh Chau cysts): 0.5 µM | hatching percentage plus (H+%) versus non-treated controls ([6]; all treatments (0.5, 1, 4 μM) at 12, 18 and 20 hours): significantly increase | hatching after 24 hours [1]: inhibited hatching almost completely | concentration at which NO donor was most effective on cyst development [1]: 0.63 µM | increase in number of nauplii compared to the control ([7]; 4 μM, 48 h): ~5 fold | hatching percentage (H %) ([7]; 4 μM, 48 h, control around 10%): 47% | optimal dose for inducing hatching ([7]; Maloye Yarovoye diapausing cysts): 4 µM
